We go through 41 compounds from patent publication US9283222B2 (priority 2006, dated 2016).

For the first experiment, the target named is Recombinant Human Poly(ADP-Ribose) Polymerase (PARP), PARP-1 (Homo sapiens (Human), UniProt P09874). Conditions: read-out: PARP-1 (Ki); Table 1; text calls the values EC50s.
Recombinant Human Poly(ADP-Ribose) Polymerase (PARP), PARP-1, sequence (P09874 whole entry): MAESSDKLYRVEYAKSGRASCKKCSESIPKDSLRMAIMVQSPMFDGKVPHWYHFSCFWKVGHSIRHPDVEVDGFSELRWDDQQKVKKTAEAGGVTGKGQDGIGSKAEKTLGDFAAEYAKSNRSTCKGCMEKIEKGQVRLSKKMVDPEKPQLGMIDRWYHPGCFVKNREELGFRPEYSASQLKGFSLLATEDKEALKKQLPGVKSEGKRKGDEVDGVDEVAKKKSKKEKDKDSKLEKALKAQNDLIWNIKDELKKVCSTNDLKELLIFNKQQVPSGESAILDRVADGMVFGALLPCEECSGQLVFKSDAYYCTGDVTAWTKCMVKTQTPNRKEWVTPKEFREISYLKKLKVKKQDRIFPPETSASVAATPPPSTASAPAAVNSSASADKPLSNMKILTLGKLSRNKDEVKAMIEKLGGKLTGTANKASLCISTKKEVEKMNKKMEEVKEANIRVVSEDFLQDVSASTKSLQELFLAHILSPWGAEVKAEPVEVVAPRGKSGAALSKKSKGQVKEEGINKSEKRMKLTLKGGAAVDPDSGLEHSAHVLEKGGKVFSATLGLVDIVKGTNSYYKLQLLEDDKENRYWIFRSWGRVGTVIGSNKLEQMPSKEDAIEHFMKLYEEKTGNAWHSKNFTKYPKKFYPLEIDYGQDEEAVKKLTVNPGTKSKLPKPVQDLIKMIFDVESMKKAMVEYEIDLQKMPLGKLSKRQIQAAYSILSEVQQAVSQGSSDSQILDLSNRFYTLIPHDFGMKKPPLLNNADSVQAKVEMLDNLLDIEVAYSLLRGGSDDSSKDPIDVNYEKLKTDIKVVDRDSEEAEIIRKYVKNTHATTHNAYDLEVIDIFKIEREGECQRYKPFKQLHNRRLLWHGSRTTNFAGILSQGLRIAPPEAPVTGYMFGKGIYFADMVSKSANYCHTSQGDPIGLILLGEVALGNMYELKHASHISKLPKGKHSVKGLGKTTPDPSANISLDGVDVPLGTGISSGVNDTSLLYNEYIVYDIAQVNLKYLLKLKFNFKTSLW
By Ki is commonly meant a measure of affinity in units of concentration, obtained from inhibition or displacement. For `O=C(NCCN1CCCC1)c1cccc(Cc2n[nH]c(=O)c3c2CCCC3)c1` [Example 52, 3-((4-oxo-3,4,5,6,7,8-hexahydrophthalazin-1-yl)methyl)-N-(2-pyrrolidin-1-ylethyl)benzamide], the inhibitory constant (Ki) is 13 nM.
Regarding `CC1CCCN1C(=O)c1cccc(Cc2n[nH]c(=O)c3c2CCCC3)c1` (centres unmarked) [Example 53, 4-(3-((2-methylpyrrolidin-1-yl)carbonyl)benzyl)-5,6,7,8-tetrahydrophthalazin-1(2H)-one], the Ki was 10 nM.
`O=C(NN1CCCCCC1)c1cccc(Cc2n[nH]c(=O)c3c2CCCC3)c1` [Example 54, N-azepan-1-yl-3-((4-oxo-3,4,5,6,7,8-hexahydrophthalazin-1-yl)methyl)benzamide]: the inhibition constant (Ki) was determined as 205 nM.
Same read-out and setting: to `O=C(NC1CNC1)c1cccc(Cc2n[nH]c(=O)c3c2CCCC3)c1` [Example 56, N-azetidin-3-yl-3-((4-oxo-3,4,5,6,7,8-hexahydrophthalazin-1-yl)methyl)benzamide] belongs 5 nM.
With `O=C(NC1CCCNC1)c1cccc(Cc2n[nH]c(=O)c3c2CCCC3)c1` (centres unmarked) [Example 57, 3-((4-oxo-3,4,5,6,7,8-hexahydrophthalazin-1-yl)methyl)-N-piperidin-3-ylbenzamide], the inhibition constant Ki stood at 60 nM.
Still for that read-out and setting: in the case of `CN(C)c1ccc(NC(=O)c2cccc(Cc3n[nH]c(=O)c4c3CCCC4)c2)cc1` [Example 58, N-(4-(dimethylamino)phenyl)-3-((4-oxo-3,4,5,6,7,8-hexahydrophthalazin-1-yl)methyl)benzamide] it was 51 nM; in that of `CN1CCN(CCNC(=O)c2cccc(Cc3n[nH]c(=O)c4c3CCCC4)c2)CC1` [Example 59, N-(2-(4-methylpiperazin-1-yl)ethyl)-3-((4-oxo-3,4,5,6,7,8-hexahydrophthalazin-1-yl)methyl)benzamide], 24 nM.
`O=C(c1cccc(Cc2n[nH]c(=O)c3c2CCCC3)c1)N1CCN(C(=O)c2ccno2)CC1` [Example 60, 4-(3-((4-(isoxazol-5-ylcarbonyl)piperazin-1-yl)carbonyl)benzyl)-5,6,7,8-tetrahydrophthalazin-1(2H)-one]: the Ki was 3 nM.
For `O=C(c1cccc(Cc2n[nH]c(=O)c3c2CCCC3)c1)N1CCC(c2ccccc2)CC1` [Example 61, 4-(3-((4-phenylpiperidin-1-yl)carbonyl)benzyl)-5,6,7,8-tetrahydrophthalazin-1(2H)-one], the inhibition constant (Ki) turned out to be 6 nM.
`O=C(NCC1CCCCN1)c1cccc(Cc2n[nH]c(=O)c3c2CCCC3)c1` (centres unmarked) [Example 62, 3-((4-oxo-3,4,5,6,7,8-hexahydrophthalazin-1-yl)methyl)-N-(piperidin-2-ylmethyl)benzamide]: the inhibition constant (Ki) was found to be 42 nM.
As to `O=C(NCC1CCNCC1)c1cccc(Cc2n[nH]c(=O)c3c2CCCC3)c1` [Example 63, 3-((4-oxo-3,4,5,6,7,8-hexahydrophthalazin-1-yl)methyl)-N-(piperidin-4-ylmethyl)benzamide], the Ki was 23 nM.
As to `O=C(NCCN1CCCCC1)c1cccc(Cc2n[nH]c(=O)c3c2CCCC3)c1` [Example 64, 3-((4-oxo-3,4,5,6,7,8-hexahydrophthalazin-1-yl)methyl)-N-(2-piperidin-1-ylethyl)benzamide], the Ki was found to be 40 nM.
As for `CN1CC(NC(=O)c2cccc(Cc3n[nH]c(=O)c4c3CCCC4)c2)C1` [Example 65, N-(1-methylazetidin-3-yl)-3-((4-oxo-3,4,5,6,7,8-hexahydrophthalazin-1-yl)methyl)benzamide], the Ki came out at 82 nM.
As to `CNC(=O)c1cc(Cc2n[nH]c(=O)c3c2CCCC3)ccn1` [Example 67, N-methyl-4-((4-oxo-3,4,5,6,7,8-hexahydrophthalazin-1-yl)methyl)pyridine-2-carboxamide], the inhibition constant Ki was found to be 50 nM.
On the same count and under the same terms, to `CS(=O)(=O)c1nccc(Cc2n[nH]c(=O)c3c2CCCC3)n1` [Example 69, 4-((2-(methylsulfonyl)pyrimidin-4-yl)methyl)-5,6,7,8-tetrahydrophthalazin-1(2H)-one] belongs 40 nM.
On to `C[S+]([O-])c1nccc(Cc2n[nH]c(=O)c3c2CCCC3)n1` (centres unmarked) [Example 70, 4-((2-(methylsulfinyl)pyrimidin-4-yl)methyl)-5,6,7,8-tetrahydrophthalazin-1(2H)-one], for which the Ki is 101 nM.
For the compound `CCNC(=O)c1cc(Cc2n[nH]c(=O)c3c2CCCC3)ccn1` [Example 75, N-ethyl-4-((4-oxo-3,4,5,6,7,8-hexahydrophthalazin-1-yl)methyl)pyridine-2-carboxamide], the inhibition constant (Ki) came to 56 nM.
The same measure, in the same setting: in the case of `CC(C)NC(=O)c1cc(Cc2n[nH]c(=O)c3c2CCCC3)ccn1` [Example 76, N-isopropyl-4-((4-oxo-3,4,5,6,7,8-hexahydrophthalazin-1-yl)methyl)pyridine-2-carboxamide] it was 473 nM; in that of `O=C(NC1CCCCC1)c1cc(Cc2n[nH]c(=O)c3c2CCCC3)ccn1` [Example 77, N-cyclohexyl-4-((4-oxo-3,4,5,6,7,8-hexahydrophthalazin-1-yl)methyl)pyridine-2-carboxamide], 195 nM; in that of `CN(CC1CCCCN1C)C(=O)c1cccc(Cc2n[nH]c(=O)c3c2CCCC3)c1` (centres unmarked) [Example 78, N-methyl-N-((1-methylpiperidin-2-yl)methyl)-3-((4-oxo-3,4,5,6,7,8-hexahydrophthalazin-1-yl)methyl)benzamide], 165 nM.
Same read-out and setting: to `CN1CCC(CNC(=O)c2cccc(Cc3n[nH]c(=O)c4c3CCCC4)c2)CC1` [Example 79, N-((1-methylpiperidin-4-yl)methyl)-3-((4-oxo-3,4,5,6,7,8-hexahydrophthalazin-1-yl)methyl)benzamide] belongs 18 nM; to `CNC(=O)c1cccc(Cc2n[nH]c(=O)c3c2CCCC3)n1` [Example 80, N-methyl-6-((4-oxo-3,4,5,6,7,8-hexahydrophthalazin-1-yl)methyl)pyridine-2-carboxamide], 47 nM.
`CCNC(=O)c1cccc(Cc2n[nH]c(=O)c3c2CCCC3)n1` [Example 81, N-ethyl-6-((4-oxo-3,4,5,6,7,8-hexahydrophthalazin-1-yl)methyl)pyridine-2-carboxamide]: the inhibition constant (Ki) is 123 nM.
On the same count and under the same terms, in the case of `CC(C)NC(=O)c1cccc(Cc2n[nH]c(=O)c3c2CCCC3)n1` [Example 82, N-isopropyl-6-((4-oxo-3,4,5,6,7,8-hexahydrophthalazin-1-yl)methyl)pyridine-2-carboxamide] it was 691 nM; in that of `O=C(NC1CC1)c1cccc(Cc2n[nH]c(=O)c3c2CCCC3)n1` [Example 83, N-cyclopropyl-6-((4-oxo-3,4,5,6,7,8-hexahydrophthalazin-1-yl)methyl)pyridine-2-carboxamide], 126 nM; in that of `O=C(NC1CCCCC1)c1cccc(Cc2n[nH]c(=O)c3c2CCCC3)n1` [Example 84, N-cyclohexyl-6-((4-oxo-3,4,5,6,7,8-hexahydrophthalazin-1-yl)methyl)pyridine-2-carboxamide], 617 nM.
For the compound `COC(=O)c1ncccc1Cc1n[nH]c(=O)c2c1CCCC2` [Example 85, methyl 3-((4-oxo-3,4,5,6,7,8-hexahydrophthalazin-1-yl)methyl)pyridine-2-carboxylate], the Ki was found to be 396 nM.
As to `COC(=O)c1ccc(Cc2n[nH]c(=O)c3c2CCCC3)cn1` [Example 86, methyl 5-((4-oxo-3,4,5,6,7,8-hexahydrophthalazin-1-yl)methyl)pyridine-2-carboxylate], the inhibition constant (Ki) turned out to be 390 nM.
In the case of `Nc1cccc(Cc2n[nH]c(=O)c3c2CCCC3)c1` [Example 89, 4-(3-aminobenzyl)-5,6,7,8-tetrahydrophthalazin-1(2H)-one], the Ki is 111 nM.
Still for that read-out and setting: in the case of `O=c1[nH]nc(Cc2cccs2)c2c1CCCC2` [Example 91, 4-(thien-2-ylmethyl)-5,6,7,8-tetrahydrophthalazin-1(2H)-one] it was 70 nM; in that of `COC(=O)c1ccc(Cc2n[nH]c(=O)c3c2CCCC3)s1` [Example 92, methyl 5-((4-oxo-3,4,5,6,7,8-hexahydrophthalazin-1-yl)methyl)thiophene-2-carboxylate], 167 nM.
Turning to `CNC(=O)c1ccc(Cc2n[nH]c(=O)c3c2CCCC3)cn1` [Example 93, N-methyl-5-((4-oxo-3,4,5,6,7,8-hexahydrophthalazin-1-yl)methyl)pyridine-2-carboxamide], the inhibition constant Ki was 840 nM.
On to `CCNC(=O)c1ccc(Cc2n[nH]c(=O)c3c2CCCC3)cn1` [Example 94, N-ethyl-5-((4-oxo-3,4,5,6,7,8-hexahydrophthalazin-1-yl)methyl)pyridine-2-carboxamide], for which the inhibition constant Ki stood at 856 nM.
Turning to `CNC(=O)c1ncccc1Cc1n[nH]c(=O)c2c1CCCC2` [Example 95, N-methyl-3-((4-oxo-3,4,5,6,7,8-hexahydrophthalazin-1-yl)methyl)pyridine-2-carboxamide], the inhibitory constant (Ki) was 1260 nM.
As for `CCNC(=O)c1ncccc1Cc1n[nH]c(=O)c2c1CCCC2` [Example 96, N-ethyl-3-((4-oxo-3,4,5,6,7,8-hexahydrophthalazin-1-yl)methyl)pyridine-2-carboxamide], the inhibition constant Ki is 2610 nM.
For `CN(C)S(=O)(=O)Nc1cccc(Cc2n[nH]c(=O)c3c2CCCC3)c1` [Example 97, N,N-dimethyl-N′-(3-((4-oxo-3,4,5,6,7,8-hexahydrophthalazin-1-yl)methyl)phenyl)sulfamide], the inhibition constant (Ki) is 390 nM.
With `O=C(CCN1CCCCC1)Nc1cccc(Cc2n[nH]c(=O)c3c2CCCC3)c1` [Example 98, N-(3-((4-oxo-3,4,5,6,7,8-hexahydrophthalazin-1-yl)methyl)phenyl)-3-piperidin-1-ylpropanamide], the Ki is 286 nM.
Same read-out and setting: to `CCCC(=O)Nc1ccc(Cl)c(Cc2n[nH]c(=O)c3c2CCCC3)c1` [Example 99] belongs 44 nM; to `O=C1CCCN1c1cccc(Cc2n[nH]c(=O)c3c2CCCC3)c1` [Example 100, 4-(3-(2-oxopyrrolidin-1-yl)benzyl)-5,6,7,8-tetrahydrophthalazin-1(2H)-one], 39 nM.

The same experiment, now with this note: read-out: PARP-1 (Ki); Table 2; A2 is C1-alkyl versus no A2 (bond).
Turning to `O=C1CCN1c1cc(-c2n[nH]c(=O)c3c2CCCC3)ccc1F`, the inhibition constant Ki is 291 nM.

Still in this experiment, the particulars now being: read-out: PARP-1 (Ki); Table 3; H analogs versus para-F analogs.
Turning to `CCN(CC)C(=O)C1CCCN(C(=O)c2cccc(Cc3n[nH]c(=O)c4c3CCCC4)c2)C1` (centres unmarked), the Ki came to 27 nM.
